Two compounds from patent publication US8552026B2, “Isatin derivatives, medicaments containing the isatin derivatives and method for its preparation” (King Saud University, priority 2011, dated 2013) can be followed below.

Holding throughout (assay): In vitro anti-TB activity, agar dilution method
What all share (type): cell-based

The test system of test [1] is Mycobacterium cheleneo (ATCC 35751). The conditions noted are these: ATCC35751, 35° C., 48 hours, read-out: MIC (μg/ml)/Mycobacterium strain M. cheleneo. As to the method:
(§1) The anti-TB activity of the synthesized compound was tested using the agar dilution method, see T. Aboul-Fadl, F. A. Mohammed, E. A. Hassan, Arch. Pharm. Res. 26 (2003) 778-784 and NCCLS Susceptibility Testing of Mycobacteria, Nocardia, and Other Aerobic Actinomycetes; Tentative Standard NCCLS document M24-T2 [ISBN 1-56238-423-6], second ed., NCCLS, 960 West Valley Road, Suite 1400, Wayne, Pa. 2000, 19087-1898, USA.
(§2) The synthesized compound was solubilized in DMSO at a concentration of 1 mg/ml. Appropriate amount was diluted first with 10% molten agar to give a concentration of 200 μg/ml. Further dilutions for the active compound were done to give 100, 50, 25, 12.5, 6.25 and up to 0.625 μg/ml. The agar and the compound solution were mixed thoroughly and the mixture was poured in Petri-dishes on a level surface to result in an agar depth of 3-4 mm and allowed to harden. The incula were prepared by growing overnight culture in Mueller-Hinton broth. The cultures were diluted 1:100. Test organisms were streaked in a radial pattern and plates were incubated at 35° C. for 48 hours. Control experiments consisted of the tested TB strains, DMSO and the growing media were treated in the same manner. Complete […] of growth was observed prior to declaring the compound to be active. The synthesized compound was evaluated for the antimycobacterial activity in vitro again four Mycobacterium strains: Mycobacterium intercellulari (ATCC35743), Mycobacterium xenopi (ATCC 14470), Mycobacterium cheleneo (ATCC 35751) and Mycobacterium smegmatis (ATCC 35797) by the agar dilution method. Isoniazid (INH) was used as a reference drug and control experiments done using a growth media free from drugs or the tested compound. Results of the in vitro antitubercular activity on the tested compound along with standard drug for comparison are given in table 1.

The subject of test [2] is Mycobacterium xenopi (ATCC 14470). The conditions noted are these: ATCC14470, 35° C., 48 hours, read-out: MIC (μg/ml)/Mycobacterium strain M. xenopi. As to the method: as §1, §2
Test [3] has as its system Mycobacterium smegmatis (ATCC 35797). To be noted: Mycolicibacterium smegmatis, ATCC35797, 35° C., 48 hours, read-out: MIC (μg/ml)/Mycobacterium strain M. smegmatis. As to the method:
as §1, §2

For test [4], the system named is Mycobacterium intercellulari (ATCC35743). The conditions noted are these: for MIC: Mycobacterium, ATCC35743, agar dilution, 35° C., 48 hours, read-out: MIC (μg/ml)/Mycobacterium strain M. intercellulari. As to the method:
as §1, §2
(In agar dilution the substance is mixed into plates at graded concentrations.)

In brackets after ≈: the same amount, converted by molar mass.

In the case of `NNC(=O)c1ccncc1` [INH, Isoniazid, reference compound], the MIC in test [1], in test [2], in test [3] and in test [4] was 12.5 µg/mL (≈ 91.1 µM) each time.
Take `CCn1cc(C(=O)NN=C2C(=O)N(Cc3ccccc3)c3ccccc32)c(=O)c2ccc(C)nc21` [R = H; R1 = H, N′-(1-benzyl-2-oxoindolin-3-ylidene)-1-ethyl-1,4-dihydro-7-methyl-4-oxo-1,8-naphthyridine-3-carbohydrazid]: the MIC in test [1], in test [2], in test [3] and in test [4] was 0.625 µg/mL (≈ 1.34 µM) throughout. The “potency relative to INH in vitro” value in test [4] (antitubercular activity screening, all four strains, versus first line drug INH) is listed as 20 times.
